Test results taken from US20070254907A1, “COMPOSITIONS AND METHODS FOR CONTROLLING INFESTATION” (HATCHTECH PTY LTD, priority 2003, published 2007).
“Also recorded” adds a separate entry of the source.

Experiments:
B. ovis eggs = test: Egg hatching in Bovicola ovis; assay type: in vivo; conditions: 10 mM; for Number hatched in different replicates: 10 eggs per replicate; for % Inhibition: in comparison to the controls; for Number unhatched: per replicate
Description: B. ovis eggs were collected from the wool of sheep that were infested with this parasite. The eggs were collected using forceps and with the aid of a dissecting microscope and placed in 24 well tissue culture plates in duplicate lots of 10 eggs per replicate. The eggs were then exposed to either methanol alone (control) or the test compounds for either 10 minutes or 1 minute before being removed from the wells and placed into individual glass vials containing a diet at the base of the tube. The tubes were placed in plastic containers containing a salt solution (to keep humidity constant at 68%) and the containers maintained at a temperature 32° C. The eggs were monitored for hatching over the following 12 days and % hatch inhibition determined in comparison to the controls.

[1] = system: house dust mite Dermatophagoides spp; test: House dust mite counts on treated filter paper; assay type: in vivo; conditions: over the 2 week period, 25° C., 75% RH
Description: A filter paper (90 mm diameter) was taken and placed in a Petri dish of the same dimensions. The filter paper was then wetted throughout with the test compound, using a small air pump sprayer. The wetted filter paper was then allowed to dry in free flowing air. 200 mg dust mite medium, containing roughly 500 mites/g, was placed on the filter paper and the number of mites counted under a microscope. The arena was then left for 2 weeks on an incubator at 25° C. and 75% RH. After 2 weeks the number of mites in the arena was counted for a second time. This experiment was repeated 3 times with the test compound and a further 3 times using water as a control.

Plutella xylostella eggs [2] = test: Reversal of inhibition of Plutella egg hatching by added FeSO4; assay type: in vivo
Description: (§1) Within 24 hours of collection the following experimental design was chosen. Batches of eggs were exposed to 10 mM 6,6′-dimethyl-2,2′-dipyridyl for 2 seconds while additional batches of eggs were exposed to the solvent only (Methanol) for 2 seconds. All batches of eggs were allowed to air dry for 20 minutes at room temperature. The eggs were then given a 2 second exposure to FeSO4 at either 10, 5 or 1 mM, air dried and put in the incubator at 24° C. and allowed to hatch over the next 6 days. In addition, a positive control of 10 mM 6,6′-dimethyl-2,2′-dipyridyl was set up in which eggs were exposed to this compound for 2 seconds, air dried and placed in the incubator.
as §1, with “10 mM 5,5′-dimethyl-2,2′-dipyridyl for 2” for “10 mM 6,6′-dimethyl-2,2′-dipyridyl for 2”, “FeSO4 at 10, 5” for “FeSO4 at either 10, 5”, “put in an incubator at” for “put in the incubator at”, “of 10 mM, 5,5′-dimethyl-2,2′-dipyridyl was set” for “of 10 mM 6,6′-dimethyl-2,2′-dipyridyl was set”

[3] = system: Helicoverpa armigera eggs; test: Egg hatching of Helicoverpa armigera; conditions: 10 mM
Description: A range of concentrations were made up in water and the eggs placed in the solutions for approximately 2-10 seconds. The eggs which had been laid on cloth were then blotted dry and placed in an incubator at 26° C. for 3-4 days until hatch. Hatch rates were then assessed compared to a water only treated control (FIG. 5).
The compound was dissolved in 100% diethoxyglycol and diluted to a final concentration of 1% in water.
Several hundred Helicoverpa armigera eggs (Tatura×Toowoomba strains) were collected, that had been laid on fine mesh cloth over a 24 hour period.
Batches of Helicoverpa eggs were exposed to a specific inhibitor solution for between 2-10 seconds the excess solution drained by blotting with dry tissue paper. The egg masses were then placed in a humid box at 25 degrees until egg hatch. Control eggs were exposed to absolute methanol as described above. At day 6 post laying the eggs were assessed from the different treatments and the percentage of egg hatch determined relative to the control as shown in Table 12.
Batches of Helicoverpa eggs were then exposed to a specific inhibitor solution for between 2-10 seconds the excess solution drained by blotting with dry tissue paper. The egg masses were then placed in a humid box at 25° C. until egg hatch. Control eggs were exposed to absolute methanol as described above. At day 6 post laying the eggs were assessed from the different treatments and the percentage of egg hatch determined relative to the control as shown in Table 13.

lice eggs = test: whole plant or invertebrate; assay type: in vivo; conditions: Lice (L)
[4] = system: Lice (L) and Plutella (P) eggs; conditions: Lice (L) and Plutella (P)
Plutella xylostella eggs [5] = test: whole plant or invertebrate; assay type: in vivo; conditions: for Ovicidal activity % / Activity class 0 = inactive 1 = low 2 = med 3 = high: Plutella (P); for % Inhibition: relative to controls
Description: The ovicidal efficacy of 2-acetyl-1-tetralone was also tested against Plutella eggs.

[6] = 10 mM chelator followed by 2 second exposure to 1 mM FeSO4
[7] = 10 mM chelator followed by 2 second exposure to 5 mM FeSO4
[8] = 10 mM chelator followed by 2 second exposure to 10 mM FeSO4
[9] = 10 mM chelator followed by 2 second exposure to MEOH
[10] = 10 mM chelator, 2 s, (+ve) control without second exposure
[11] = Table 10, eggs laid on cloth, 1 mM
[12] = Table 10, eggs laid on cloth, 10 mM
[13] = Table 11, eggs laid on parafilm, 1 mM
[14] = Table 11, eggs laid on parafilm, 10 mM

SMILES: Cc1ccc(-c2ccc(C)cn2)nc1 [5,5′-dimethyl-2,2′-dipyridyl]
- egg hatching in the louse (B. ovis eggs; 10 or 1 minute exposure): completely inhibited
- Number hatched in different replicates (B. ovis eggs; 1 minute exposure): Rep 1. 0; also recorded: Rep 2. 0
- % Inhibition (B. ovis eggs; 1 minute exposure): 100%
- Number unhatched (B. ovis eggs; 1 minute exposure): 10
- Number hatched in different replicates (B. ovis eggs; 10 minute exposure): Rep 2. 0; also recorded: Rep 1. 0
- % Inhibition (B. ovis eggs; 10 minute exposure): 100%
- Number unhatched (B. ovis eggs; 10 minute exposure): 10
- mite populations on the treated filter papers [1]: small decline
- Number hatched (Plutella xylostella eggs [2]; [6]): 39
- Number unhatched (Plutella xylostella eggs [2]; [6]): 0
- % Inhibition (Plutella xylostella eggs [2]; 10 mM chelator followed by 2 second exposure to 1 mM FeSO4, relative to FeSO4 controls): 0%
- Number hatched (Plutella xylostella eggs [2]; [7]): 25
- Number unhatched (Plutella xylostella eggs [2]; [7]): 0
- % Inhibition (Plutella xylostella eggs [2]; 10 mM chelator followed by 2 second exposure to 5 mM FeSO4, relative to FeSO4 controls): 0%
- Number hatched (Plutella xylostella eggs [2]; [8]): 23
- Number unhatched (Plutella xylostella eggs [2]; [8]): 2
- % Inhibition (Plutella xylostella eggs [2]; 10 mM chelator followed by 2 second exposure to 10 mM FeSO4, relative to FeSO4 controls): 8%
- % Inhibition (Plutella xylostella eggs [2]; [9]): 55%
- Number hatched (Plutella xylostella eggs [2]; [9]): 16
- Number unhatched (Plutella xylostella eggs [2]; [9]): 19
- % Inhibition (Plutella xylostella eggs [2]; [10]): 100%
- Number hatched (Plutella xylostella eggs [2]; [10]): 0
- Number unhatched (Plutella xylostella eggs [2]; [10]): 38
- effect of added Fe in FeSO4 on the chelator's inhibition of egg hatching (Plutella xylostella eggs [2]; 10 mM chelator, then FeSO4 10, 5 or 1 mM): able to reverse the effects
- inhibition of egg hatching after MeOH alone post exposure (Plutella xylostella eggs [2]; 10 mM chelator, then MeOH): significant degree of inhibition of egg hatching
- effect on egg hatching of Helicoverpa armigera (words) [3]: significant inhibition of egg hatching
- Number hatched ([3]; Table 13): 0
- Number unhatched ([3]; Table 13): 42
- % Inhibition ([3]; Table 13, relative to the control (100% MeOH)): 100%
- Ovicidal activity % (lice eggs; 30 mM): 100.00%
- Activity class 0 = inactive 1 = low 2 = med 3 = high (lice eggs; listed as of 30 mM): 2 (a pLD50 value between 3 and 4 is considered moderately active (Class 2))
- Ovicidal activity % ([4]; 10 mM): 100.00%
- Activity class 0 = inactive 1 = low 2 = med 3 = high ([4]; listed as of 10 mM): 3 (a pLD50 greater than 4 is considered strongly active (Class 3))
- effect on egg hatching of Plutella xylostella (words) (Plutella xylostella eggs [5]; 10 and 1 mM): significantly inhibit egg hatching
- Ovicidal activity % (Plutella xylostella eggs [5]; 0.1 mM): 57.00%
- Ovicidal activity % (Plutella xylostella eggs [5]; 1 mM): 98.00%
- Activity class 0 = inactive 1 = low 2 = med 3 = high (Plutella xylostella eggs [5]; listed as of 0.1 mM): 3 (a pLD50 greater than 4 is considered strongly active (Class 3))
- Activity class 0 = inactive 1 = low 2 = med 3 = high (Plutella xylostella eggs [5]; listed as of 1 mM): 3 (a pLD50 greater than 4 is considered strongly active (Class 3))
- Number hatched (Plutella xylostella eggs [5]; [11]): 5
- Number unhatched (Plutella xylostella eggs [5]; [11]): 22
- % Inhibition (Plutella xylostella eggs [5]; [11]): 78%
- Number hatched (Plutella xylostella eggs [5]; [12]): 0
- Number unhatched (Plutella xylostella eggs [5]; [12]): 21
- % Inhibition (Plutella xylostella eggs [5]; [12]): 100%
- Number hatched (Plutella xylostella eggs [5]; [13]): 18
- Number unhatched (Plutella xylostella eggs [5]; [13]): 133
- % Inhibition (Plutella xylostella eggs [5]; [13]): 88%
- Number hatched (Plutella xylostella eggs [5]; [14]): 0
- Number unhatched (Plutella xylostella eggs [5]; [14]): 138
- % Inhibition (Plutella xylostella eggs [5]; [14]): 100%
